# Results reported in patent publication US9435813B2, “Biomarkers of hemorrhagic shock” (The General Hospital Corporation, priority 2010, dated 2016).
# Entries after “also recorded” stand apart in the source; their conditions may differ.
# Tests used:
# 22.7 kDa serum protein = assay: SELDI-TOF MS serum protein profiling in lethal hemorrhagic shock model; type: in vivo; settings: rat, 60% blood loss, VPA 300 mg/kg via femoral vein, 24 hours after treatment
# Method: (§1) An animal model of HS was used. Male Wistar-Kyoto rats (254.12±2.71 grams, Harlan, Indianapolis, Ind.) were used in the lethal model of hemorrhagic shock (Shults et al., J Trauma 2008; 64(3):629-638). Each animal's estimated blood volume was calculated using the formula: [estimated blood volume (mL)=weight (g)×0.06 (mL/g)+0.77]. About 1.3 mL of blood was manually drawn at the beginning and end of hemorrhage for analysis (included in the total hemorrhage calculation). The animals were hemorrhaged (40% of their calculated total blood volume) via a femoral arterial catheter over 10 minutes, followed by a 20% blood volume venous bleed over the next 50 minutes. Bleeding was performed using Kent Scientific adjustable pumps (Kent Scientific Corporation, N.J.). VPA (300 mg/kg) was administered via a femoral vein catheter after completion of hemorrhage. Blood pressure was monitored continuously during the experiment. The mean arterial pressure (MAP) in animals that were subjected to hemorrhage dropped sharply after bleeding to approximately 20 mm Hg. […]
# ProteinChip profiling was performed on CM10 ProteinChip arrays (Ciphergen Biosystems, Fremont Calif.), as recommended by the manufacturer. […] The arrays were then inserted into a ProteinChip (Enterprise edition) TOF-MS and read at an optimized laser setting of 2000 nJ-5000 nJ. […]
# claudin-3 [1] = assay: iTRAQ quantification of claudin-3 peptide in serum after hemorrhagic shock; type: in vivo; settings: rat serum, 24 hours post-VPA 300 mg/kg; BL to HS ratio 0.323
# Method: as §1
# Immunodepletion of serum abundant proteins was performed as follows. […] Column performance was monitored by sodium dodecyl sulphate-polyacrylamide gel electrophoresis (SDS-PAGE) followed by Coomassie Blue staining (BioBlue, BioRad). […]
# claudin-3 [2] = assay: Western blot of serum claudin-3 after hemorrhagic shock; type: in vivo; settings: rat serum, 1 hour following VPA treatment; two bands seen in HS 1 hour group
# Method: An animal model of HS was used. Male Wistar-Kyoto rats (254.12±2.71 grams, Harlan, Indianapolis, Ind.) were used in the lethal model of hemorrhagic shock (Shults et al., J Trauma 2008; 64(3):629-638). Each animal's estimated blood volume was calculated using the formula: [estimated blood volume (mL)=weight (g)×0.06 (mL/g)+0.77]. About 1.3 mL of blood was manually drawn at the beginning and end of hemorrhage for analysis (included in the total hemorrhage calculation). The animals were hemorrhaged (40% of their calculated total blood volume) via a femoral arterial catheter over 10 minutes, followed by a 20% blood volume venous bleed over the next 50 minutes. Bleeding was performed using Kent Scientific adjustable pumps (Kent Scientific Corporation, N.J.). VPA (300 mg/kg) was administered via a femoral vein catheter after completion of hemorrhage. Blood pressure was monitored continuously during the experiment. […]
# To assess whether claudin-3 is a potential biomarker, independent serum samples were taken of sham (no hemorrhage and no treatment), HS 1 hour (1 hour following hemorrhagic shock), and VPA 1 hour (1 hour following VPA treatment) from individual rats and the level of the candidate biomarker was determined by Western blot with anti-claudin-3 antibody. […]
# claudin-3 [3] = assay: Western blot of intestinal claudin-3 protein after hemorrhagic shock; type: in vivo; settings: rat intestine, 1, 6, and 24 hours after VPA treatment
# Method: as §1, with “experiment.” for “experiment. The mean arterial pressure (MAP) in animals that were subjected to hemorrhage dropped sharply after bleeding to approximately 20 mm Hg.”
# Claudin-3 is a TJ protein that has important roles in establishing epithelial and endothelial barriers. To find out whether HS and VPA treatment affect claudin-3 protein in TJ of epithelial cells, protein expression was analyzed in intestinal tissue obtained from sham, HS 1 hour (1 hour after hemorrhagic shock), and VPA-treated animals (1 hour, 6 hours, and 24 hours after treatment). […]
# claudin-3 mRNA = assay: RT-PCR of intestinal claudin-3 mRNA after hemorrhagic shock; type: in vivo; settings: rat intestine, 1, 6 and 24 hours
# Method: To assess whether gene expression of claudin-3 responds to HS and VPA treatment, the mRNA expression of rat intestines among the groups of sham, HS and VPA treatment was compared at 1, 6 and 24 hours using RT-PCR methods.
# hemorrhagic shock [4] = assay: Survival in lethal model of hemorrhagic shock; type: in vivo; settings: rat, HS 60% blood loss, VPA 300 mg/kg; untreated animals did not survive
# Method: as §1
# Male Wistar-Kyoto rats underwent HS (60% blood loss) followed by treatment with or without VPA (300 mg/kg). Serum samples were obtained at baseline (BL), end of hemorrhage (EH), and after VPA treatment (VPA), and subjected to iTRAQ and analyzed by liquid chromatography-tandem mass spectrometry (LC-MS/MS). […]
# CINC-1 [5] = assay: Serum CINC-1, multiplex electrochemiluminescence assay, sub-lethal hemorrhagic shock; type: in vivo; settings: rat, 40% blood volume hemorrhage, VPA 300 mg/kg IV vs vehicle
# Method: (§2) Anesthetized Wistar-Kyoto rats (250-300 g) underwent 40% blood volume hemorrhage over 10 minutes followed by 30 minutes of un-resuscitated shock and were treated with 1) VPA 300 mg/kg or 2) vehicle control. Blood samples were obtained at baseline, following shock, and prior to sacrifice (1 hour, 4 hours, and 20 hours; n=3-4/time point/group). Serum samples were screened for possible biomarkers using a multiplex electrochemiluminescence detection assay, and results were confirmed using ELISA. Additionally, lung tissue lysate was examined for chemokine and myeloperoxidase (MPO) levels as markers for neutrophil infiltration and ALI. Additionally, lung CINC-1 (a chemokine belonging to the IL-8 family that promotes neutrophil chemotaxis) mRNA levels were measured by real-time PCR.
# Animals were hemorrhaged 40% of their total blood volume to induce sub-lethal HS, and were sacrificed at 1, 4, and 20 hours following hemorrhage and treatment. This degree of blood loss was selected to allow 100% of animals in all groups to survive until the designated time of sacrifice. Selected laboratory values were measured, and were indicative of moderate HS (mean lactate 0.6 mmol/L at baseline, 4.3 mmol/L after hemorrhage; mean baseline hemoglobin 12.0 g/dL at baseline, 9.6 g/dL after hemorrhage). […]
# CINC-1 [6] = assay: Serum CINC-1 ELISA, sub-lethal hemorrhagic shock; type: in vivo; settings: rat, 40% blood volume hemorrhage, VPA 300 mg/kg IV vs vehicle, 4 hours, p<0.05
# Method: as §2
# (§3) Animals were hemorrhaged 40% of their total blood volume to induce sub-lethal HS, and were sacrificed at 1, 4, and 20 hours following hemorrhage and treatment. This degree of blood loss was selected to allow 100% of animals in all groups to survive until the designated time of sacrifice. Selected laboratory values were measured, and were indicative of moderate HS (mean lactate 0.6 mmol/L at baseline, 4.3 mmol/L after hemorrhage; mean baseline hemoglobin 12.0 g/dL at baseline, 9.6 g/dL after hemorrhage).
# Conventional ELISA was used to confirm the data obtained using the multiplex electrochemiluminescence assay.
# CINC-1 [7] = assay: Lung tissue CINC-1 ELISA, sub-lethal hemorrhagic shock; type: in vivo; settings: rat, 40% blood volume hemorrhage, VPA 300 mg/kg IV vs vehicle, 20 hour time point, p=0.17
# Method: as §2, §3
# ELISA was used to measure CINC-1 levels in lung whole tissue extract (n=3-4/time point/group).
# myeloperoxidase (MPO) = assay: Lung tissue myeloperoxidase (MPO) level, sub-lethal hemorrhagic shock; type: in vivo; settings: rat, 40% blood volume hemorrhage, VPA 300 mg/kg IV vs vehicle, 20 hour time point, p<0.05
# Method: as §2
# (§4) Animals were hemorrhaged 40% of their total blood volume to induce sub-lethal HS, and were sacrificed at 1, 4, and 20 hours following hemorrhage and treatment. […] Selected laboratory values were measured, and were indicative of moderate HS (mean lactate 0.6 mmol/L at baseline, 4.3 mmol/L after hemorrhage; mean baseline hemoglobin 12.0 g/dL at baseline, 9.6 g/dL after hemorrhage).
# Myeloperoxidase (MPO) levels were measured in lung whole tissue extract as a marker for neutrophil infiltration (n=3-4/time point/group).
# CINC-1 mRNA = assay: Lung CINC-1 mRNA by real-time PCR, sub-lethal hemorrhagic shock; type: in vivo; settings: rat, 40% blood volume hemorrhage, VPA 300 mg/kg IV vs vehicle, 1, 4 and 20 hours
# Method: as §2, §4
# To rule out possibility that an increase of CINC-1 protein in lung results from induction of the gene expression, lung tissue was assessed for CINC-1 mRNA levels (n=3-4/time point/group). […]
# acute lung injury = assay: Acute lung injury (ALI) following hemorrhagic shock; type: in vivo; settings: rat, 40% blood volume hemorrhage, VPA 300 mg/kg
# hemorrhagic shock [8] = settings: rats, literature (Shults et al. 2008; Li et al. 2008; WO 2007117272); cited from earlier work
smiles,measurement,setting,value
"CCCC(CCC)C(=O)O [VPA, Valproic acid]",serum level of 22.7 kDa protein (SELDI-TOF MS) versus HS,22.7 kDa serum protein,down-regulated
same,"ratio of VPA to HS, claudin-3 peptide isobaric tag signal in serum",claudin-3 [1],0.425
same,serum claudin-3 by Western blot,claudin-3 [2],no claudin-3 was detected
same,intestinal claudin-3 protein level by Western blot,claudin-3 [3],significantly attenuated the HS-induced reduction of claudin-3
same,intestinal claudin-3 mRNA expression,claudin-3 mRNA,did not significantly change
same,survival after hemorrhagic shock,hemorrhagic shock [4],significantly improved survival; also recorded: survived
same,HS-induced rise of serum CINC-1 (multiplex electrochemiluminescence assay),CINC-1 [5],appeared to be attenuated
same,HS-induced increase of circulating CINC-1 (ELISA),CINC-1 [6],significantly attenuated this effect
same,effects on lung CINC-1 levels,CINC-1 [7],not statistically significant
same,HS-induced increase of lung MPO levels,myeloperoxidase (MPO),significantly attenuated this effect
same,lung CINC-1 mRNA levels,CINC-1 mRNA,no significant changes between groups
same,development of ALI after hemorrhage,acute lung injury,inhibited and reduced
same,survival after lethal HS,hemorrhagic shock [8],improves survival
